The subject of series [1] is living HeLa cells, the immobilized cells, and the cell culturing plate. Nature of the series: Nonspecific adherence of nanophosphors with or without RE-1 coating. The conditions noted are these: 2 hr treatment, washed 3 times with PBS. The series is classed as cell-based. The protocol: Living HeLa cells (purchased from Institute of Biochemistry and Cell Biology, SIBS, CAS) cultured in a 96-well plate, immobilized cells, and cell culturing plate were treated with UCN and UCN-S with or without RE-1 coating for 2 hr, respectively, and then washed with PBS for 3 times. The binding of UCN nanoparticles to the living HeLa cells, the immobilized cells, and the cell culturing plate was observed under a fluorescence microscope (Olympus IX71, Olympus, Japan) equipped with a 980 nm infrared laser (MDL-980 nm 1W, Changchun New Industries Optoelectronics Tech. Co., Ltd, China).

The next series has as its system mice liver. Nature of the series: Liver damage in mice livers (HE staining). Type of series: in vivo, Balb/c mice. The note with it: UCP+RE-1 or UCP+AP-1, tail vein, 24 hr. The protocol: Balb/c mice (purchased from SLAC Laboratory Animal (Shanghai, China), 6 weeks old, and weighed 20 g when used) were bred in a sterile housing, and then 300 μg (dosage: 15 mg/kg) UCN, UCN+PEG (containing 10 mg PEG), UCN+RE-1, UCP, UCP+RE-1, or UCP+AP-1 was injected through tail vein. An equal volume of normal saline was injected as a control. After 24 hr, the livers of the mice were removed and subjected to western blotting assay.
The mice livers obtained as described in Example 21 were in situ fixed with 2.5% glutaral-dimethyl arsine buffer (pH 7.4) at 4° C. for 1 hr, then fixed with 2% osmium tetroxide at room temperature for 1 hr, and then dehydrated with ethanol gradients. Then, the cell samples were embedded in paraffin. The embedded cell samples were cut into ultrathin slices, which were stained with HE (hematoxylin-eosin), and observed and imaged under fluorescence microscope.

In another series the test system is HeLa cells. Nature of the series: Effect of RE-1 analogues on cytotoxicity induced by UCN, UCP (MTT, PI staining). The note with it: 1 mg/mL, 24 hr. Type of series: cell-based. On the procedure:
MTT cell vitality assay is performed as follows: The cells to which samples have been added are cultured for 24 hr, and then 0.5 mg/mL MTT solution is added and cultured for 4 hr. The MTT solution in the well is discharged, and then 200 μL DMSO is added, followed by gently shaking the plate on a shaking table for 10 min. Detection is performed using microplate reader (ELX800, purchased from BIO-TEK) at a wavelength of 570 nm.
PI staining assay is performed as follows: The cells to which samples have been added are cultured for 24 hr, and then to the culture Hoechst 33342 (10 mM, purchased from Sigma, USA, Catalog #: B2261) and PI (Propidium Iodide) (10 mM, purchased from Beyotime Biotechnology, Catalog #: ST511) are added for 10 min of staining. Then, the cells are detected and photographed under a fluorescence microscope (Olympus IX71, purchased from Olympus). The number of the cells counted by this assay was 500.
HeLa cells were inoculated into 96-well cell culturing plate at a density of about 1-2×10^4 cells/well, and cultured overnight for further use. At first, the medium was replaced with fresh DMEM medium, and then 1 mg/mL UCN, UCP, UCN+PEG (containing 10 mg PEG), UCN+RE-1, UCP, UCP+RE-1, UCN+RE-2, UCN+RE-3, UCN+RE-5, UCP+RE-2, UCP+RE-3, or UCP+RE-5 were added, respectively. After culturing for 24 hr, MTT cell viability assay and PI staining were performed to detect the mortality of the cells.

For the sequence “ACTARSPWICG [RE-1, RE-0 with terminal amino acids A and G added]”, in series [1], the “nonspecific adherence of UCN coated with RE-1 versus UCN without RE-1 coating” value is listed as “about 10 times lower” and the “nonspecific adherence of UCN-S coated with RE-1 versus UCN-S without RE-1 coating” value is “about 100 times lower”. Also, the “effect of coating on liver damage induced by UCP” value in the series with mice liver is given as “significantly reduced the level of the damages to livers”. The “inhibitory effect of coating on cytotoxicity induced by UCN and UCP” value in the series on HeLa cells was “RE-1>RE-3>RE-5”.

For the origin of these results see US9540418B2, “Polypeptide specifically binding to rare earth nanoparticles and use thereof” (University of Science and Technology of China, priority 2012, dated 2017).
